One block for each compound: values may come before it. Calls of active or inactive are those of the source.
Experiments:
[1] = blockers of HIV-1 envelope-mediated cell-cell fusion – cherry-pick, dose response (AID 652057); assay type: functional, cell-based
[2] = HIV-1 AD8 envelope cell-cell fusion blockers – cherry-pick, dose response (AID 652062); assay type: functional, cell-based;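 further: luciferase signal from cell-cell fusion driven by HIV-1 clade B AD8 Env; potency is for inhibitors of fusion seen as a drop in luminescence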
[3] = target: T1, Polyadenylate-binding protein 1 (Homo sapiens, UniProt P11940); assay: MLLE binding blockers, Cy5 peptide tracer – biochemical, fluorescence polarization, Cy5-PAM2 peptide, secondary, miRNA deadenylation inhibitor project, dose response (AID 602260); assay type: functional; details: read-out: IC50_Mean
T1 sequence (P11940 whole entry, the tested form may be a part): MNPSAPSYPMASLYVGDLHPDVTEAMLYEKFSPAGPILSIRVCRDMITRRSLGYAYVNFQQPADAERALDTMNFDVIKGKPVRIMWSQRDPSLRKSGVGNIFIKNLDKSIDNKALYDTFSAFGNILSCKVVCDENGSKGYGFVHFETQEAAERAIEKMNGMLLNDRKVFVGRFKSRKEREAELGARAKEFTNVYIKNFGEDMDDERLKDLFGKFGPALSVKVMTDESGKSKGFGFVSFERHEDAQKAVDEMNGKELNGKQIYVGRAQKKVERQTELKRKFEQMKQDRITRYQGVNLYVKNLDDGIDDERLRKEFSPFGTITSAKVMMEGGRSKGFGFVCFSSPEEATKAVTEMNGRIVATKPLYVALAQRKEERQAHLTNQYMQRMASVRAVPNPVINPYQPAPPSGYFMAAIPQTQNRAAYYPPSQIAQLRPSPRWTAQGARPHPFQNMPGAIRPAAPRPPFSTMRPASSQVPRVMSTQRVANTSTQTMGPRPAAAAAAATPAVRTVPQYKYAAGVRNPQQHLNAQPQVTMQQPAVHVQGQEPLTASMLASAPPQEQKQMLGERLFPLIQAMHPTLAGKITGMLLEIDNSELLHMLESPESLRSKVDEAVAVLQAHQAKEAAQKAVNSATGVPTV

[4] = target: T1, Polyadenylate-binding protein 1; assay: MLLE domain peptide-binding blockers, IC50 – biochemical, fluorescence polarization, FITC-PAM2 peptide, dose response (AID 602259); assay type: functional; details: read-out: IC50_Mean
[5] = target: T2, Rac GTPase-activating protein 1 (Homo sapiens, UniProt Q9H0H5); assay: blockers of MgcRacGAP-driven Rac1 GTP hydrolysis – biochemical, ADP Hunter fluorescence, primary and confirmatory, confirmation (AID 624330); assay type: functional
T2 sequence (Q9H0H5 whole entry): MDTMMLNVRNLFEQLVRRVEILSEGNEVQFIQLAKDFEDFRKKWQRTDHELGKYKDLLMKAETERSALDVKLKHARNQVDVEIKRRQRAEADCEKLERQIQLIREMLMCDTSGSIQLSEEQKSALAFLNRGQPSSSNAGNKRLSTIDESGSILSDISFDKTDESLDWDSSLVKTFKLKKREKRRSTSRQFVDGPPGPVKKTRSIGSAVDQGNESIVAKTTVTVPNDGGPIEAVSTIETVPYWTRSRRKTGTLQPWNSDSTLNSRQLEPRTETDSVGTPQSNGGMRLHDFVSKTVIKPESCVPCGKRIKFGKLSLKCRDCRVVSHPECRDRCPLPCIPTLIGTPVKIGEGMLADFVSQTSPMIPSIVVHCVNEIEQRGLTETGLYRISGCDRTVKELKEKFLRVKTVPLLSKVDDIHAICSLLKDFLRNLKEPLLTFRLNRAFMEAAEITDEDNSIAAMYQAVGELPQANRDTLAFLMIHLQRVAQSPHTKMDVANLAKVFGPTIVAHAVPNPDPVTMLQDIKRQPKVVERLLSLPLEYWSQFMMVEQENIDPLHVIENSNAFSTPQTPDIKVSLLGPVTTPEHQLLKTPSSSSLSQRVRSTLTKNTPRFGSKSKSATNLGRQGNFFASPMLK

[6] = target: T3, Histone-lysine N-methyltransferase NSD2 (Homo sapiens, UniProt O96028); assay type: biochemical
T3 sequence (O96028 whole entry): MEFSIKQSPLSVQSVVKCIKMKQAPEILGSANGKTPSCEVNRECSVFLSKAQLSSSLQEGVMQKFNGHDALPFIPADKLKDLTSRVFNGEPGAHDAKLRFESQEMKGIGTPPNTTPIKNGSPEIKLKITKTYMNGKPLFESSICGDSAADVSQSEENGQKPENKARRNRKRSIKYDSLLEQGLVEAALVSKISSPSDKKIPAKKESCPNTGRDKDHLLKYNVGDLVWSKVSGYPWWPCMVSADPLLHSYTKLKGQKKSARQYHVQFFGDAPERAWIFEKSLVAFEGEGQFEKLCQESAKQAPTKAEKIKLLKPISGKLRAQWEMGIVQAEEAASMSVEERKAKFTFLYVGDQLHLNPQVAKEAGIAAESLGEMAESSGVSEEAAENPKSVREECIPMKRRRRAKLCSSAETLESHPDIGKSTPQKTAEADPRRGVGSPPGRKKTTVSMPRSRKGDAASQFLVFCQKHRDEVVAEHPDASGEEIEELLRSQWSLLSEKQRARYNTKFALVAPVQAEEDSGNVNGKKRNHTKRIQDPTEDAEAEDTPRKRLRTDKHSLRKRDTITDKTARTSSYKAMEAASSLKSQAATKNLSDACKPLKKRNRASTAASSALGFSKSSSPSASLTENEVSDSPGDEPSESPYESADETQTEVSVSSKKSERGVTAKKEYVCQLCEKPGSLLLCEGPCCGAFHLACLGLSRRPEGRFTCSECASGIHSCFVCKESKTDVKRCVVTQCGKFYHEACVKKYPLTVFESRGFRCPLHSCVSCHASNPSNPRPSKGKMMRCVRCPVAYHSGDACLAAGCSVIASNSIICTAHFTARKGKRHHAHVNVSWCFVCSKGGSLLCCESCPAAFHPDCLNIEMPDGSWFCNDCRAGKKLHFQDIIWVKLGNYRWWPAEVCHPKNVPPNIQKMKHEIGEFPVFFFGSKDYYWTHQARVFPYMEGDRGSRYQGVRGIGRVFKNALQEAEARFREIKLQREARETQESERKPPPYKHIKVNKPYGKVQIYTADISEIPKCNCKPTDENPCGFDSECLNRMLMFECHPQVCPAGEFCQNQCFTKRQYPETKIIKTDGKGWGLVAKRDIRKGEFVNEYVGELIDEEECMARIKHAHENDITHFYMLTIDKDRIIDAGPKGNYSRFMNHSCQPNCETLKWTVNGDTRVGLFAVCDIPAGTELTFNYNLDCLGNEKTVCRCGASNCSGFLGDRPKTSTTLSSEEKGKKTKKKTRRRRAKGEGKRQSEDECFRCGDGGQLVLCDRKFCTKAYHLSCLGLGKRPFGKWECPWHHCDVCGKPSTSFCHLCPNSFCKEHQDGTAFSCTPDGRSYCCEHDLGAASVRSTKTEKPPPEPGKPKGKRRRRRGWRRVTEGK

Beta-galactosidase = Beta-galactosidase (Escherichia coli, UniProt Q8VNN2); assay: PubChem AID 485352; assay type: functional
Chain of Beta-galactosidase (Q8VNN2 whole entry): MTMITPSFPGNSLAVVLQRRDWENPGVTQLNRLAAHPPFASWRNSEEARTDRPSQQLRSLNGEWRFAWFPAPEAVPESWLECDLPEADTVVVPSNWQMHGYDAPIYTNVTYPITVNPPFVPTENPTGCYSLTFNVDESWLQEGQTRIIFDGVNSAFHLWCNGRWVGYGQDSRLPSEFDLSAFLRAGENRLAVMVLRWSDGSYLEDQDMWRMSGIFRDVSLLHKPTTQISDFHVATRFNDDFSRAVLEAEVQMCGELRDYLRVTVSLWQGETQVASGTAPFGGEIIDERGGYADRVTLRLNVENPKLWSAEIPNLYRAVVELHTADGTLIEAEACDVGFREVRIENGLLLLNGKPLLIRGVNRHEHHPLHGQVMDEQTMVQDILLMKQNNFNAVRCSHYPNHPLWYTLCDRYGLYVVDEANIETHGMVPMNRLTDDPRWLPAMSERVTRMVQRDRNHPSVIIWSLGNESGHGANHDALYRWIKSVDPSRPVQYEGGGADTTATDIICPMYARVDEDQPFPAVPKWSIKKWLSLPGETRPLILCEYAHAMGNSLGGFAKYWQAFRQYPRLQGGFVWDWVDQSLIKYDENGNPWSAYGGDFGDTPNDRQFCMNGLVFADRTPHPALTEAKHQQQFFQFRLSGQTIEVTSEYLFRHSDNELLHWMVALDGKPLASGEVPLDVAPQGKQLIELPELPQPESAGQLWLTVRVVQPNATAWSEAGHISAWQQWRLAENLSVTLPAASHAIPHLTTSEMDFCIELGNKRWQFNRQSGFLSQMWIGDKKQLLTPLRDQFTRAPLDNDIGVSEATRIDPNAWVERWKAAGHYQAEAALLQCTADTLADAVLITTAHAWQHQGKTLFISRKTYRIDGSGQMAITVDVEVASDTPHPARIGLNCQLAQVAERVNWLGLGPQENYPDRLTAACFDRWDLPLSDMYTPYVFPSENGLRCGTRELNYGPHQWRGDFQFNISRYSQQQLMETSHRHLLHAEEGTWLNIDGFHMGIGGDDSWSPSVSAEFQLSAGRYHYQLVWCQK

[7] = target: T4, Type-1 angiotensin II receptor (Homo sapiens, UniProt P30556); assay: antagonism of angiotensin II type 1 receptor – cell-based, uHTS hits, selectivity assay for APJ receptor antagonist project, dose response (AID 463214); assay type: functional;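 further: antagonist potency against angiotensin II stimulated AT1 response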
T4 sequence (P30556 whole entry): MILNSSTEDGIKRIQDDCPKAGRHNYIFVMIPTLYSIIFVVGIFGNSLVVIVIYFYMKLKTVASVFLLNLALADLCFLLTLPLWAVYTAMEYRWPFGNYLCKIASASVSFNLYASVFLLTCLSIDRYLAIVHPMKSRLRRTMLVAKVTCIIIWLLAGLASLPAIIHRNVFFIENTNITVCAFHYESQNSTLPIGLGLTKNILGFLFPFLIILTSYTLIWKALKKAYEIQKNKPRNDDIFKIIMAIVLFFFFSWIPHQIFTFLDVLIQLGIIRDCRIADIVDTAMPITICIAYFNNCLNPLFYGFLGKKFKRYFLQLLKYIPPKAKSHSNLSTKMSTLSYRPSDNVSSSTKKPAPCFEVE

[8] = HIV-1 Vif–A3G interaction blockers – biochemical, TR-FRET, GST-Vif 1-94, biotin-A3G peptide, dose response retest, primary screen (AID 1117319); assay type: functional;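 further: TR-FRET signal of purified GST-Vif binding a biotinylated A3G peptide; inhibitors lower the FRET signal by blocking Vif and A3G binding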
[9] = target: T5, Calpain-2 catalytic subunit (Sus scrofa, UniProt P43367); assay: m-calpain protease blockers, concentration series – biochemical, fluorogenic peptide substrate, dose response (AID 1420); assay type: functional
T5 sequence (P43367 whole entry): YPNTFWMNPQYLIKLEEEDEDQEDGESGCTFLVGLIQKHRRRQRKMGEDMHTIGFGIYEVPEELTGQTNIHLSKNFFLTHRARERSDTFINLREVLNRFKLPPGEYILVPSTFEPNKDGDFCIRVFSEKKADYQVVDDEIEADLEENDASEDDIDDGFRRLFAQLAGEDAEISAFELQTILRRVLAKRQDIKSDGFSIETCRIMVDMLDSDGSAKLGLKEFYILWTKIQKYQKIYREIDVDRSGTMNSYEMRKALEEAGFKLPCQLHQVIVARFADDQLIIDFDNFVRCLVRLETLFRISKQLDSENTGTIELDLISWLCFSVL

[10] = growth inhibition of yeast DHODH-expressing 3D7 parasites – SYBR Green, dry powder samples, dose response (AID 1159570); assay type: functional, cell-based;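 further: parasite growth measured after 72 hours of compound exposure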
[11] = P. falciparum Dd2 growth inhibitors, dose response, SYBR Green, cherry-picked samples (AID 1159567); assay type: functional, cell-based
[12] = Dd2 malaria parasite growth inhibition potency – SYBR Green, dry powder samples, dose response (AID 1159566); assay type: functional, cell-based;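 further: potency for growth inhibition with lower SYBR green DNA signal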
[13] = growth inhibition of PfATP4-mutant resistant parasites – NITD609-resistant line, SYBR Green, dry powder, dose response (AID 1159571); assay type: functional, cell-based;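 further: parasites synchronized at ring stage by sorbitol before testing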

Compound: CC(c1nc(O)c2ccccc2n1)N(C)CCOc1ccc(Cl)cc1 (stereo not given)
AC50 [1]: 57.3 µM (active)
AC50 [2]: 28.3 µM (active)

IC50 [3]: > 66 µM (inactive)
IC50 [4]: > 66 µM (inactive)
Compound: CSc1nc2oc3c(c2c2nncn12)CC(C)(C)SC3

IC50 [5]: 63.6 µM (active)
AC50 [6]: 1.79 µM (active)
Compound: N=C1/C(=C\c2ccc(O)c(O)c2)C(=O)N=C2SC(CC(=O)N3CCOCC3)=NN12

EC50 (Beta-galactosidase): > 40 µM (inactive)
IC50 [7]: > 40 µM (not active)
IC50 [3]: > 66 µM (inactive)
IC50 [4]: > 66 µM (inactive)
Compound: C/C(=N\NC(=S)Nc1cccc(C)c1)c1ccccc1

IC50 [3]: > 66 µM (inactive)
IC50 [4]: > 66 µM (inactive)
Compound: Cn1cc(/C=N\O)nc2c(=O)n(-c3ccccc3)c(=O)nc1-2

IC50 [8]: > 100 µM (active)
Compound: CC1SC(N/N=C/c2ccco2)=NC1=O (stereo not given)

IC50 [9]: 4.39 µM (not active)
Compound: O=C(N/N=C/c1cc(Br)cs1)c1c[nH]c2ccccc12

Compound: Cc1ccc(S(=O)(=O)N(C)C[C@@H]2OCc3ccccc3-c3c(n(C)c4ccccc34)C(=O)N([C@@H](C)CO)C[C@@H]2C)cc1
AC50 [10]: 0.427 µM (active)
AC50 [11]: 0.611 µM (active)
AC50 [12]: 0.346 µM (active)
AC50 [13]: 0.291 µM (active)

IC50 [3]: > 66 µM (inactive)
IC50 [4]: > 66 µM (inactive)
Compound: COc1cc(C(=S)N2CCOCC2)ccc1O [VANITIOLIDE]

Reference: ChEMBL document CHEMBL1201862, “PubChem BioAssay data set” (2004)
